SMILES strings stand for the structures. Several values for one entry are separate records, joined by “and”; a condition that tells them apart may be missing. Equal values may be shown once.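 Method: 48-hour compound exposure of cells in 96-well plates, five concentrations, linear interpolation of endpoints. GI50 marks 50% less growth. TGI marks complete inhibition of growth.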

What all share (assay): inhibition of tumour cell growth, NCI panel, 48 h
Assay [1] concerns IGROV1 ovarian.
For assay [2], the system named is NCI-H23 lung.
In assay [3] the test system is COLO 205 colon.
The subject of assay [4] is A549 NSCLC.
Assay [5] deals with UACC-257 melanoma.
The subject of assay [6] is HOP-62 NSCLC.
Assay [7] deals with CCRF-CEM leukemia.
Assay [8] has as its system MCF7 breast.
Assay [9] relates to PC-3 prostate.
Assay [10] relates to NCI-H226 lung.

Take `O=C(O)c1c[nH]c2c(OCc3ccccc3)c3ccccc3c(O)c2c1=O`: the GI50 is 18.7 µM in [1]; 3.22 µM in assay [2]; 17.6 µM in assay [3]; 16.4 µM in assay [4]; 11.8 µM in assay [5]; 17.5 µM in assay [6]. Further, the GI50 was 10 µM in assay [7], 14.9 µM in assay [8] and 15.1 µM in assay [9]. For the same compound, the TGI in [1] was above 100 µM; in assay [2], 14.3 µM; in assay [3], 34.7 µM; in [4], 30.7 µM; in assay [5], 24.2 µM; in assay [6] it was 31.4 µM. Besides, the results for the TGI in assay [7], in assay [8] and in assay [9] were 34.7 µM, 34.3 µM and 45.9 µM, respectively.

For `COC1=C2C[C@@H](C)C[C@@H](OC)[C@@H](O)[C@H](C)/C=C(\C)[C@@H](OC(N)=O)[C@H](OC)/C=C\C=C(/C)C(=O)NC(=CC1=O)C2=O`, the GI50 in assay [3] is 0.0578 µM and 0.015 µM. Further, the TGI in assay [5] is 5.05 µM and 12.7 µM and 2.5 µM; in assay [7] it was 1.07 µM and 7.4 µM and 4.95 µM; in assay [9], 8.01 µM and 5.58 µM and 14.9 µM.

Turning to `COC(=O)/C(=N\NC(=S)NN)C(C(=O)OC)C(=O)C(=O)Nc1cccc(C(F)(F)F)c1` (centres undefined), the TGI in assay [1], in assay [2], in [10], in [4], in assay [5] and in [6] was above 100 µM throughout. The TGI in [7], in [8] and in [9] was above 100 µM each time.

In the case of `Cc1nn(-c2ccccc2)c2nc3c(nc12)C1=NCCN1C(c1ccc(Cl)cc1)N3` (centres undefined), the GI50 in assay [1] was 11.7 µM; in [2], 15.3 µM; in assay [3], 1.84 µM; in assay [10] it was 5.04 µM; in assay [4], 4.63 µM; in assay [5] it was 1.79 µM. The results for the GI50 in assay [6], in [7] and in assay [9] were 3.26 µM, 2.69 µM and 4.33 µM, respectively. The TGI turned out to be 27.4 µM in assay [1]; 31.6 µM in assay [2]; 3.36 µM in [3]; 14.4 µM in [10]; 17.7 µM in assay [4]; 3.49 µM in assay [5]. Also, the TGI in assay [6] came to 8.31 µM; in assay [7], 7.85 µM; in assay [9], 18.3 µM.

`O=C1NC(c2c(Cl)cccc2Cl)Nc2ccccc21` (centres undefined): the TGI in assay [1], in [3], in assay [10], in [4], in [5] and in [6] was above 100 µM in each case. In addition, the TGI in assay [8] and in assay [9] was above 100 µM each time.

As for `CCC(c1ccc2cc(O)ccc2c1)C(C)(C)C(=O)O` (centres undefined), the TGI in assay [1], in assay [2], in assay [3], in assay [10], in assay [4] and in [5] was above 100 µM throughout. In addition, the TGI in assay [6], in assay [8] and in assay [9] was above 100 µM throughout.

As for `C=C(C)[C@@H]1CC[C@]2(C(=O)O)CC[C@]3(C)[C@H](CC[C@@H]4[C@@]5(C)C/C(=C/c6ccc(OC)cc6)C(=O)C(C)(C)[C@@H]5CC[C@]43C)[C@@H]12`, the GI50 in [1] was 2.15 µM; in assay [2] it was 2.44 µM; in assay [10], 1.85 µM; in assay [4] it was 1.3 µM; in [5], 2.1 µM; in assay [6] it was 2.24 µM. The GI50 in assay [8] was 2.59 µM; in assay [9] it was 1.74 µM. For the same compound, the TGI in assay [1] turned out to be 7.3 µM; in assay [2], 8.25 µM; in [10], 4.3 µM; in assay [4], 4.56 µM; in [5] it was 6.93 µM; in assay [6], 7.51 µM. Moreover, the TGI amounted to 7.74 µM in [8] and 8.24 µM in assay [9].

As to `CC(C(=O)O)/C(=C\c1ccc2c(c1)OCO2)C(=O)O` (centres undefined), the TGI in assay [1], in assay [2], in assay [3], in [10], in assay [4] and in assay [5] was above 100 µM in each case. Moreover, the TGI in assay [6], in [8] and in assay [9] was above 100 µM each time.

With `CS(=O)(=O)c1ccc(Oc2cc(F)cc(C#N)c2)c2c1[C@H](O)C(F)(F)C2`, the GI50 in assay [1], in assay [2], in assay [3], in assay [10], in assay [4] and in assay [6] was above 100 µM in each case. Further, the results for the GI50 in assay [7], in assay [8] and in assay [9] were 21.9 µM, above 100 µM and above 100 µM, respectively. The TGI in [1], in assay [2], in [3], in assay [10], in assay [4] and in assay [6] was above 100 µM throughout. Besides, the TGI was 47.5 µM in assay [7], above 100 µM in assay [8] and above 100 µM in [9].

For the compound `N#Cc1cc(N(CCCl)CCCl)c([N+](=O)[O-])cc1[N+](=O)[O-]`, the TGI in assay [1], in assay [2], in [3], in assay [4], in assay [5] and in [6] was above 100 µM throughout. Besides, the TGI is 98.2 µM in [7], above 100 µM in assay [8] and above 100 µM in assay [9].

Turning to `CCCc1nc(NC#N)nc(C(=O)NC23CC4CC(CC(C4)C2)C3)c1C`, the TGI in assay [1], in assay [2], in [3], in assay [10], in [4] and in [5] was above 100 µM each time. In addition, the TGI in assay [6] and in assay [7] was above 100 µM throughout.

`CSc1nc(C)c(Br)c(=O)n1C1OC(COC(C)=O)C(OC(C)=O)C(OC(C)=O)C1OC(C)=O` (centres undefined): the GI50 in assay [1] was > 100 µM and 27.4 µM; in assay [2], > 100 µM and 47 µM; in [10], > 100 µM and 36 µM; in assay [4], > 100 µM and 28.5 µM; in [5], > 100 µM and 39 µM. Besides, the TGI in assay [1] was > 100 µM and 71.5 µM; in [2] it was above 100 µM; in assay [3], above 100 µM; in assay [10] it was above 100 µM; in [4], above 100 µM; in [5], above 100 µM. For the same compound, the TGI is 72.3 µM and 43.9 µM in assay [6]; above 100 µM in [7]; above 100 µM in assay [8].

`O=C(Nc1ccc(OCc2nnc(-c3ccccc3)o2)c(F)c1)Nc1ccc(Cl)c(C(F)(F)F)c1`: the GI50 in assay [1] was 2.12 µM; in assay [2], 2.37 µM; in assay [3], 2.11 µM; in [10], 3.65 µM; in assay [4], 1.91 µM; in assay [6] it was 2.84 µM. The values for the GI50 in assay [7], in assay [8] and in assay [9] were 2.38 µM, 2.29 µM and 1.3 µM, respectively. The TGI in [1] turned out to be 5.23 µM; in [2], 8.09 µM; in assay [3], 5.52 µM; in assay [10], 28.3 µM; in assay [4], 35.5 µM; in [6], 7.95 µM. Moreover, the TGI in assay [7] was found to be 10.6 µM; in assay [8], 8.93 µM; in assay [9] it was 4.85 µM.

On to `COc1ccc(-c2nc(N3CCOCC3)c3sc(CN(C)c4ncc(C(=O)NO)cn4)cc3n2)cn1`, for which the GI50 in [1] was below 0.01 µM; in assay [2] it was 0.0103 µM; in assay [10] it was 0.0112 µM; in assay [4], below 0.01 µM; in assay [5], below 0.01 µM; in assay [6], below 0.0106 µM. In addition, the GI50 in assay [7], in assay [8] and in [9] was below 0.01 µM throughout. Moreover, the TGI in assay [1] stood at 0.0439 µM; in assay [2], 0.601 µM; in [10], 1.13 µM; in assay [4], 0.0625 µM; in assay [5], 0.0466 µM; in [6], 0.123 µM. The TGI in assay [7] came out at 1.53 µM; in assay [8], 0.366 µM; in [9] it was 0.112 µM.

Take `C/C(=C\CCc1ccsc1)CC/C=C(\C)CCCN1CCC(CO)CC1`: the GI50 in assay [1] was 3.26 µM; in assay [2], 3.4 µM; in assay [3], 1.92 µM; in [10], 3.94 µM; in [4], 2.35 µM; in assay [5], 1.84 µM. Also, the GI50 in assay [6] is 1.89 µM; in assay [7], 2.09 µM; in [8], 2.17 µM. The TGI in [1] worked out at 10.8 µM; in assay [2], 12.9 µM; in assay [3] it was 3.95 µM; in assay [10], 21 µM; in assay [4], 7.56 µM; in assay [5] it was 4.06 µM. Besides, the values for the TGI in [6], in assay [7] and in assay [8] were 3.63 µM, 4.8 µM and 5.09 µM, respectively.

Values taken from PubChem BioAssay (NCI).
